Data: USRE47141E1, “Methods of treating fibrosis, cancer and vascular injuries” (EWHA University—Industry Collaboration Foundation, priority 2010, dated 2018)

The compounds below were run against ALK5 (Homo sapiens (Human), UniProt P36897) (assay: Cell-free assay for inhibition of ALK5 kinase phosphorylation). Details: read-out: IC50 on ALK5 kinase phosphorylation.
Type: biochemical
Procedure: ALK5 protein was expressed in Sf9 insect cells as human recombinant GST-fusion protein using the baculovirus expression system. Expressed protein was purified by affinity chromatography using GSH-agarose (Sigma-Aldrich). Kinase assay was performed in 96-well FlashPlates™ from Perkin Elmer (Boston, Mass., USA) in a 50 μL reaction volume. The reaction cocktail was pipetted in four steps in the following order: 20 μL of assay buffer (standard buffer), 5 μL of ATP solution in H2O, 5 μL of each test compounds of formula (I) in 10% DMSO, 10 μL of GSK3 (14-27) (200 ng)/10 μL of ALK5 solution (1 ng) (premixed). The reaction cocktail contained 60 mM HEPES-NaOH, pH 7.5, 3 mM MgCl2, 3 mM MnCl2, 3 Na3VO4, 1.2 mM DTT, 50 μg/mL PEG20000, 1 μM [γ-^33P]-ATP (approximately 2.5×10^5 cpm per well), 200 ng/10 μL GSK3 (14-27), and 1 ng/10 μL ALK5. The reaction cocktail was incubated at 30° C. for 60 min. The reaction was stopped with 50 μL of 2% (v/v) H3PO4, and plates were aspirated and washed two times with 200 μL 0.9% (w/v) NaCl. Assay was performed with a BeckmanCoulter Biomek 2000 robotic system. Incorporation of ^33Pi (counting of “cpm”) was determined with a microplate scintillation counter (Microbeta, Wallac).

Chain of ALK5 (P36897 34-503): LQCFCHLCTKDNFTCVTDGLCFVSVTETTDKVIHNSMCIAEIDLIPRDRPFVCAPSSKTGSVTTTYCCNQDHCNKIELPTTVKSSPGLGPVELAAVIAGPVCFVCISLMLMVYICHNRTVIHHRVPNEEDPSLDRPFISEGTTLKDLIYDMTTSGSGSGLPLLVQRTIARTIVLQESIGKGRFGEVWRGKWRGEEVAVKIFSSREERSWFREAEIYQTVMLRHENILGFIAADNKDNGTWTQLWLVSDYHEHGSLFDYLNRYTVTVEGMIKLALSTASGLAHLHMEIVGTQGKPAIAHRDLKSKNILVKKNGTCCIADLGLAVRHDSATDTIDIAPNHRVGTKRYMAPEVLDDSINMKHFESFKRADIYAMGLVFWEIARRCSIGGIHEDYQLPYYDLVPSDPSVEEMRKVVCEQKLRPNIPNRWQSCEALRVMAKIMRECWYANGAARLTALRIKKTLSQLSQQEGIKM

Structure (SMILES) | IC50 [nM]
Cc1cccc(-c2[nH]c(CNc3ccccc3)nc2-c2ccc3ncnn3c2)n1 [Example 1, N-((4-([1,2,4]triazolo[1,5-a]pyridin-6-yl)-5-(6-methylpyridin-2-yl)-1H-imidazol-2-yl)methyl)aniline] | 13.1
Cc1cccc(-c2[nH]c(CNc3cccc(F)c3)nc2-c2ccc3ncnn3c2)n1 [Example 5, N-((4-([1,2,4]triazolo[1,5-a]pyridin-6-yl)-5-(6-methylpyridin-2-yl)-1H-imidazol-2-yl)methyl)-3-fluoroaniline] | 9.41
Cc1cccc(-c2[nH]c(CNc3ccc(F)cc3)nc2-c2ccc3ncnn3c2)n1 [Example 6, N-((4-([1,2,4]triazolo[1,5-a]pyridin-6-yl)-5-(6-methylpyridin-2-yl)-1H-imidazol-2-yl)methyl)-4-fluoroaniline] | 17.4
Cc1cccc(-c2[nH]c(CNc3cccc(F)c3F)nc2-c2ccc3ncnn3c2)n1 [Example 7, N-((4-([1,2,4]triazolo[1,5-a]pyridin-6-yl)-5-(6-methylpyridin-2-yl)-1H-imidazol-2-yl)methyl)-2,3-difluoroaniline] | 8.96
Cc1cccc(-c2[nH]c(CNc3ccc(F)c(F)c3)nc2-c2ccc3ncnn3c2)n1 [Example 8, N-((4-([1,2,4]triazolo[1,5-a]pyridin-6-yl)-5-(6-methylpyridin-2-yl)-1H-imidazol-2-yl)methyl)-3,4-difluoroaniline] | 9.84
Cc1cccc(-c2[nH]c(CNc3cc(F)cc(F)c3)nc2-c2ccc3ncnn3c2)n1 [Example 9, N-((4-([1,2,4]triazolo[1,5-a]pyridin-6-yl)-5-(6-methylpyridin-2-yl)-1H-imidazol-2-yl)methyl)-3,5-difluoroaniline] | 6.39
Cc1cccc(-c2[nH]c(CNc3ccccc3Cl)nc2-c2ccc3ncnn3c2)n1 [Example 10, N-((4-([1,2,4]triazolo[1,5-a]pyridin-6-yl)-5-(6-methylpyridin-2-yl)-1H-imidazol-2-yl)methyl)-2-chloroaniline] | 9.41
Cc1cccc(-c2[nH]c(CNc3cccc(Cl)c3)nc2-c2ccc3ncnn3c2)n1 [Example 12, N-((4-([1,2,4]triazolo[1,5-a]pyridin-6-yl)-5-(6-methylpyridin-2-yl)-1H-imidazol-2-yl)methyl)-3-chloroaniline] | 6.16
Cc1cccc(-c2[nH]c(CNc3ccc(Cl)cc3)nc2-c2ccc3ncnn3c2)n1 [Example 14, N-((4-([1,2,4]triazolo[1,5-a]pyridin-6-yl)-5-(6-methylpyridin-2-yl)-1H-imidazol-2-yl)methyl)-4-chloroaniline] | 10.7
Cc1cccc(-c2[nH]c(CNc3cccc(Cl)c3Cl)nc2-c2ccc3ncnn3c2)n1 [Example 15, N-((4-([1,2,4]triazolo[1,5-a]pyridin-6-yl)-5-(6-methylpyridin-2-yl)-1H-imidazol-2-yl)methyl)-2,3-dichloroaniline] | 12.3
Cc1cccc(-c2[nH]c(CNc3ccc(Cl)c(Cl)c3)nc2-c2ccc3ncnn3c2)n1 [Example 16, N-((4-([1,2,4]triazolo[1,5-a]pyridin-6-yl)-5-(6-methylpyridin-2-yl)-1H-imidazol-2-yl)methyl)-3,4-dichloroaniline] | 7.54
Cc1cccc(-c2[nH]c(CNc3cc(Cl)cc(Cl)c3)nc2-c2ccc3ncnn3c2)n1 [Example 17, N-((4-([1,2,4]triazolo[1,5-a]pyridin-6-yl)-5-(6-methylpyridin-2-yl)-1H-imidazol-2-yl)methyl)-3,5-dichloroaniline] | 14.6
Cc1cccc(-c2[nH]c(CNc3ccccc3Br)nc2-c2ccc3ncnn3c2)n1 [Example 18, N-((4-([1,2,4]triazolo[1,5-a]pyridin-6-yl)-5-(6-methylpyridin-2-yl)-1H-imidazol-2-yl)methyl)-2-bromoaniline] | 6.54
Cc1cccc(-c2[nH]c(CNc3cccc(Br)c3)nc2-c2ccc3ncnn3c2)n1 [Example 20, N-((4-([1,2,4]triazolo[1,5-a]pyridin-6-yl)-5-(6-methylpyridin-2-yl)-1H-imidazol-2-yl)methyl)-3-bromoaniline] | 4.53
Cc1cccc(-c2[nH]c(CNc3ccc(Br)cc3)nc2-c2ccc3ncnn3c2)n1 [Example 22, N-((4-([1,2,4]triazolo[1,5-a]pyridin-6-yl)-5-(6-methylpyridin-2-yl)-1H-imidazol-2-yl)methyl)-4-bromoaniline] | 17.1
Cc1cccc(-c2[nH]c(CNc3ccccc3C)nc2-c2ccc3ncnn3c2)n1 [Example 23, N-((4-([1,2,4]triazolo[1,5-a]pyridin-6-yl)-5-(6-methylpyridin-2-yl)-1H-imidazol-2-yl)methyl)-2-methylaniline] | 13.9
Cc1cccc(NCc2nc(-c3ccc4ncnn4c3)c(-c3cccc(C)n3)[nH]2)c1 [Example 24, N-((4-([1,2,4]triazolo[1,5-a]pyridin-6-yl)-5-(6-methylpyridin-2-yl)-1H-imidazol-2-yl)methyl)-3-methylaniline] | 9.07
Cc1ccc(NCc2nc(-c3ccc4ncnn4c3)c(-c3cccc(C)n3)[nH]2)cc1 [Example 26, N-((4-([1,2,4]triazolo[1,5-a]pyridin-6-yl)-5-(6-methylpyridin-2-yl)-1H-imidazol-2-yl)methyl)-4-methylaniline] | 15.6

Structure (SMILES) | IC50 [nM]
Cc1cccc(-c2[nH]c(CNc3cccc(C)c3C)nc2-c2ccc3ncnn3c2)n1 [Example 27, N-((4-([1,2,4]triazolo[1,5-a]pyridin-6-yl)-5-(6-methylpyridin-2-yl)-1H-imidazol-2-yl)methyl)-2,3-dimethylaniline] | 18
Cc1cccc(-c2[nH]c(CNc3ccc(C)c(C)c3)nc2-c2ccc3ncnn3c2)n1 [Example 28, N-((4-([1,2,4]triazolo[1,5-a]pyridin-6-yl)-5-(6-methylpyridin-2-yl)-1H-imidazol-2-yl)methyl)-3,4-dimethylaniline] | 17.4
Cc1cc(C)cc(NCc2nc(-c3ccc4ncnn4c3)c(-c3cccc(C)n3)[nH]2)c1 [Example 29, N-((4-([1,2,4]triazolo[1,5-a]pyridin-6-yl)-5-(6-methylpyridin-2-yl)-1H-imidazol-2-yl)methyl)-3,5-dimethylaniline] | 14.3
CCc1ccccc1NCc1nc(-c2ccc3ncnn3c2)c(-c2cccc(C)n2)[nH]1 [Example 30, N-((4-([1,2,4]triazolo[1,5-a]pyridin-6-yl)-5-(6-methylpyridin-2-yl)-1H-imidazol-2-yl)methyl)-2-ethylaniline] | 10.6
CCc1cccc(NCc2nc(-c3ccc4ncnn4c3)c(-c3cccc(C)n3)[nH]2)c1 [Example 31, N-((4-([1,2,4]triazolo[1,5-a]pyridin-6-yl)-5-(6-methylpyridin-2-yl)-1H-imidazol-2-yl)methyl)-3-ethylaniline] | 8.01
Cc1cccc(-c2[nH]c(CNc3ccccc3C(C)C)nc2-c2ccc3ncnn3c2)n1 [Example 33, N-((4-([1,2,4]triazolo[1,5-a]pyridin-6-yl)-5-(6-methylpyridin-2-yl)-1H-imidazol-2-yl)methyl)-2-isopropylaniline] | 14.2
Cc1cccc(-c2[nH]c(CNc3cccc(C(C)C)c3)nc2-c2ccc3ncnn3c2)n1 [Example 34, N-((4-([1,2,4]triazolo[1,5-a]pyridin-6-yl)-5-(6-methylpyridin-2-yl)-1H-imidazol-2-yl)methyl)-3-isopropylaniline] | 16.2
Cc1cccc(-c2[nH]c(CNc3ccc(C(C)C)cc3)nc2-c2ccc3ncnn3c2)n1 [Example 35, N-((4-([1,2,4]triazolo[1,5-a]pyridin-6-yl)-5-(6-methylpyridin-2-yl)-1H-imidazol-2-yl)methyl)-4-isopropylaniline] | 46
C=Cc1ccccc1NCc1nc(-c2ccc3ncnn3c2)c(-c2cccc(C)n2)[nH]1 [Example 36, N-((4-([1,2,4]triazolo[1,5-a]pyridin-6-yl)-5-(6-methylpyridin-2-yl)-1H-imidazol-2-yl)methyl)-2-vinylaniline] | 14.2
C=Cc1cccc(NCc2nc(-c3ccc4ncnn4c3)c(-c3cccc(C)n3)[nH]2)c1 [Example 37, N-((4-([1,2,4]triazolo[1,5-a]pyridin-6-yl)-5-(6-methylpyridin-2-yl)-1H-imidazol-2-yl)methyl)-3-vinylaniline] | 11.9
C=Cc1ccc(NCc2nc(-c3ccc4ncnn4c3)c(-c3cccc(C)n3)[nH]2)cc1 [Example 40, N-((4-([1,2,4]triazolo[1,5-a]pyridin-6-yl)-5-(6-methylpyridin-2-yl)-1H-imidazol-2-yl)methyl)-4-vinylaniline] | 29.6
COc1ccccc1NCc1nc(-c2ccc3ncnn3c2)c(-c2cccc(C)n2)[nH]1 [Example 42, N-((4-([1,2,4]triazolo[1,5-a]pyridin-6-yl)-5-(6-methylpyridin-2-yl)-1H-imidazol-2-yl)methyl)-2-methoxyaniline] | 14.4
COc1cccc(NCc2nc(-c3ccc4ncnn4c3)c(-c3cccc(C)n3)[nH]2)c1 [Example 43, N-((4-([1,2,4]triazolo[1,5-a]pyridin-6-yl)-5-(6-methylpyridin-2-yl)-1H-imidazol-2-yl)methyl)-3-methoxyaniline] | 14.3
COc1ccc(NCc2nc(-c3ccc4ncnn4c3)c(-c3cccc(C)n3)[nH]2)cc1 [Example 44, N-((4-([1,2,4]triazolo[1,5-a]pyridin-6-yl)-5-(6-methylpyridin-2-yl)-1H-imidazol-2-yl)methyl)-4-methoxyaniline] | 48.1
COc1cccc(NCc2nc(-c3ccc4ncnn4c3)c(-c3cccc(C)n3)[nH]2)c1OC [Example 45, N-((4-([1,2,4]triazolo[1,5-a]pyridin-6-yl)-5-(6-methylpyridin-2-yl)-1H-imidazol-2-yl)methyl)-2,3-dimethoxyaniline] | 57.5
COc1ccc(NCc2nc(-c3ccc4ncnn4c3)c(-c3cccc(C)n3)[nH]2)cc1OC [Example 46, N-((4-([1,2,4]triazolo[1,5-a]pyridin-6-yl)-5-(6-methylpyridin-2-yl)-1H-imidazol-2-yl)methyl)-3,4-dimethoxyaniline] | 44.2
COc1cc(NCc2nc(-c3ccc4ncnn4c3)c(-c3cccc(C)n3)[nH]2)cc(OC)c1 [Example 47, N-((4-([1,2,4]triazolo[1,5-a]pyridin-6-yl)-5-(6-methylpyridin-2-yl)-1H-imidazol-2-yl)methyl)-3,5-dimethoxyaniline] | 14.4
